The text below walks through data of ChEMBL document CHEMBL2407075, “Sulphonamido-quinoxalines: search for anticancer agent” (Eur J Med Chem, 2013).

In general, bioavailability refers to the share of a dose that reaches the circulation, judged against a reference dose that is usually intravenous.

Structures are written as SMILES.

The nature of this data set: Oral bioavailability in human. The format is ADME, organism-based. The following applies: in silico prediction.

Take `CC(=O)NS(=O)(=O)c1ccc2nc(-c3ccccc3)c(-c3ccccc3)nc2c1`: the bioavailability was 94.7%.

For the molecule `O=S(=O)(Nc1ccc2ccccc2c1)c1ccc2nc(-c3ccccc3)c(-c3ccccc3)nc2c1`, the bioavailability is 100%.

As for `O=S(=O)(Nc1ccc(O)cc1)c1ccc2nc(-c3ccccc3)c(-c3ccccc3)nc2c1`, the bioavailability was 93.9%.

On to `O=[N+]([O-])c1ccc(NS(=O)(=O)c2ccc3nc(-c4ccccc4)c(-c4ccccc4)nc3c2)cc1`, for which the bioavailability was 87.6%.

Regarding `O=[N+]([O-])c1cccc(NS(=O)(=O)c2ccc3nc(-c4ccccc4)c(-c4ccccc4)nc3c2)c1`, the bioavailability was 85.6%.

Regarding `O=C(O)c1ccccc1NS(=O)(=O)c1ccc2nc(-c3ccccc3)c(-c3ccccc3)nc2c1`, the bioavailability was 83.6%.

For `Cc1ccnc(NS(=O)(=O)c2ccc3nc(-c4ccccc4)c(-c4ccccc4)nc3c2)c1`, the bioavailability was 100%.

On to `CC(=O)c1cccc(NS(=O)(=O)c2ccc3nc(-c4ccccc4)c(-c4ccccc4)nc3c2)c1`, for which the bioavailability was 96.9%.
